Consider eleven compounds from patent publication US20230139171A1 (SITA Information Networking Computing UK Limited, priority 2019, published 2023).

Common to all, as to type: cell-based
One assay concerns the target T1, human TLR7 (Homo sapiens, UniProt Q9NYK1).
T1 construct: host or cells: HEK-Blue cells
T1 sequence (Q9NYK1 27-1049): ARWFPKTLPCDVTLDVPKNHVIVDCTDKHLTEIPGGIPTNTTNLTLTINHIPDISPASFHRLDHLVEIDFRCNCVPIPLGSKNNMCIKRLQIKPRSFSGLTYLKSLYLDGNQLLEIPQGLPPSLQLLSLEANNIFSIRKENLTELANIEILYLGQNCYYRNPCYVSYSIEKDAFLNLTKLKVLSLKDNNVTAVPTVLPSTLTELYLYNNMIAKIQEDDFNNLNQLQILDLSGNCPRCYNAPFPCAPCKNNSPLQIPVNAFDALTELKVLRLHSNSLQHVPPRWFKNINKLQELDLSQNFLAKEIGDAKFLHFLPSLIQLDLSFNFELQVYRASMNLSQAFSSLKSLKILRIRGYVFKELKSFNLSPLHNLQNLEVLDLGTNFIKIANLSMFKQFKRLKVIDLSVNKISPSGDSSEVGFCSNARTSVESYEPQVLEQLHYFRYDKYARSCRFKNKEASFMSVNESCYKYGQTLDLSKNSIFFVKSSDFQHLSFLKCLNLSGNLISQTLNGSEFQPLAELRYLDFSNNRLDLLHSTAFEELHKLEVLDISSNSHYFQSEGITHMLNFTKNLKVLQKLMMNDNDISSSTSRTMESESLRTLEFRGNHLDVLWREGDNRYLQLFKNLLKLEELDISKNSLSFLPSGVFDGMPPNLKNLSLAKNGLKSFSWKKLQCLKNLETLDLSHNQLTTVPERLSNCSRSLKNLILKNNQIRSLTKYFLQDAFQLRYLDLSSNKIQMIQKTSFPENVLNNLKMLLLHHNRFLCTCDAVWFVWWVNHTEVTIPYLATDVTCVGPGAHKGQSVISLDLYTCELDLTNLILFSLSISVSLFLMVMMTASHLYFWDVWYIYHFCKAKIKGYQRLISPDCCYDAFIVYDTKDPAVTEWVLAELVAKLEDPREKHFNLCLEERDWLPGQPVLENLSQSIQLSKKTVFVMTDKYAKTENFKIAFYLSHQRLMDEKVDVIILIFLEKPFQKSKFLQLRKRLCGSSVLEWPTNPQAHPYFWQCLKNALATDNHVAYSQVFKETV
Description: TLR7 inhibition reporter assay (HEK-Blue cells, SEAP reporter, gardiquimod stimulation). The settings on record: HEK-Blue cells overexpressing human TLR7, SEAP reporter, gardiquimod 7.5 μM; read-out: TLR7 IC50. A digest of the protocol: (§1)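 Screening used HEK-Blue cells overexpressing one human TLR (7, 8 or 9) and an IFN-β minimal promoter–NF-κB/AP-1 SEAP construct. Stimulation lasted 22 h at 37 °C with receptor-specific agonist: gardiquimod, R848 or ODN2006 at 7.5 μM, 15.9 μM and 5 nM.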

A further assay addresses T2, human TLR9 (Homo sapiens, UniProt Q9NR96).
T2 construct: host or cells: HEK-Blue cells
T2 sequence (Q9NR96 26-1032): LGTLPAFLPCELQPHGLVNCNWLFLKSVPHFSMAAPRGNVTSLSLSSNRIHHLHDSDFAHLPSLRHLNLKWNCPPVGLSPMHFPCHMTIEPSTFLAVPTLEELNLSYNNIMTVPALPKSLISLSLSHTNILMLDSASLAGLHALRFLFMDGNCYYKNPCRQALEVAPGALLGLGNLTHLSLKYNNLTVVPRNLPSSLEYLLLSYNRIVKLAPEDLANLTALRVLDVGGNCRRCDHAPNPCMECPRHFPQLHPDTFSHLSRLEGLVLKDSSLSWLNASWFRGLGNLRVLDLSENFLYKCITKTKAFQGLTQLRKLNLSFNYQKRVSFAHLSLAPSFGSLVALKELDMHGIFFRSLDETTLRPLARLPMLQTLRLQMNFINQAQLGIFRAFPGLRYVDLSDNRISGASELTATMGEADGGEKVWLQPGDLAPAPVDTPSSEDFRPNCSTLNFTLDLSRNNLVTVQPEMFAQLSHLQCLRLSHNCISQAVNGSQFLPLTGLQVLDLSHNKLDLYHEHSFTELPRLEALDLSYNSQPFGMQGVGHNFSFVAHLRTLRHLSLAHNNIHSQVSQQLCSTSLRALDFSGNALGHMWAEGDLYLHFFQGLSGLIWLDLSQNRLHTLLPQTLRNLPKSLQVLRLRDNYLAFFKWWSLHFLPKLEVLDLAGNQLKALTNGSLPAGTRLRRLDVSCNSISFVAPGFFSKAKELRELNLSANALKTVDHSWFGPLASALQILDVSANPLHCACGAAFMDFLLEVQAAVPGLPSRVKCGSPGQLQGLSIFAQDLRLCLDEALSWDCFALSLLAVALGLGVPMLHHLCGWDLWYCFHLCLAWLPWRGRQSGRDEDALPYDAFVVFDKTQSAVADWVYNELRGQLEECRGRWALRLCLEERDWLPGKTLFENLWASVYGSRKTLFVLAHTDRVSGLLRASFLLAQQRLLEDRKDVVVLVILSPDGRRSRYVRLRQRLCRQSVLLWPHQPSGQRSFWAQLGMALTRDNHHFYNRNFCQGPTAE
Description: TLR9 inhibition reporter assay (HEK-Blue cells, SEAP reporter, ODN2006 stimulation). Particulars: HEK-Blue cells overexpressing human TLR9, SEAP reporter, ODN2006 5 nM. The procedure, abridged: as §1
On the technique in general: Reporter assays use an easily measured gene product as a stand-in for the process of interest.

The target of a further assay is T3, human TLR8 (Homo sapiens, UniProt Q9NR97).
T3 construct: host or cells: HEK-Blue cells
T3 sequence (Q9NR97 27-1041): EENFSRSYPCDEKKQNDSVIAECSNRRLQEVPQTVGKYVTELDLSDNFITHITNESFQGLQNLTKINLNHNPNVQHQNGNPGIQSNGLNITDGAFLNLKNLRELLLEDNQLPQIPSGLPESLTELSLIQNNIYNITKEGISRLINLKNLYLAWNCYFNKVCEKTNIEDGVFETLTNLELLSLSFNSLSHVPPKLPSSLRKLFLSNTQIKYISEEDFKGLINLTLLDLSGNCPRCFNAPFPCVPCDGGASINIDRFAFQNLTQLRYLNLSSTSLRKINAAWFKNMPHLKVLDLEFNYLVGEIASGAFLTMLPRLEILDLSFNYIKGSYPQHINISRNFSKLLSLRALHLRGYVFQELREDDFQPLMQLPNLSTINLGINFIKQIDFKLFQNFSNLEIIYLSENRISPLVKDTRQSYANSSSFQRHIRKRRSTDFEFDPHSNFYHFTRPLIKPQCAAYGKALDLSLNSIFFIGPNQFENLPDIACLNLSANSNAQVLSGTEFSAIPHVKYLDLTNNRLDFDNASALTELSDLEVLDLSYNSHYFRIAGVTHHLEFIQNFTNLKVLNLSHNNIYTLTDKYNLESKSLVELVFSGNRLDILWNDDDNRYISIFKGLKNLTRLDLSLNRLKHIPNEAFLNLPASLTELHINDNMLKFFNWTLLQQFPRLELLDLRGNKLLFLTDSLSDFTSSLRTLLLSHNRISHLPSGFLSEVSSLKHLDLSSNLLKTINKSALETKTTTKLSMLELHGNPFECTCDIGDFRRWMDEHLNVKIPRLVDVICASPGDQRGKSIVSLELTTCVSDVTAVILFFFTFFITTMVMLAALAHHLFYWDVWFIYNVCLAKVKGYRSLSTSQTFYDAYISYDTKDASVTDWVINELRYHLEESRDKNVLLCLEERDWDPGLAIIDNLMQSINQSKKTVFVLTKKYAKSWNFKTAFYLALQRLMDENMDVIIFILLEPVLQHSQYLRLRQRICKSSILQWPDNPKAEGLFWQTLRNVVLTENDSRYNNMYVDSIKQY
In words: TLR8 inhibition reporter assay (HEK-Blue cells, SEAP reporter, R848 stimulation). Particulars: HEK-Blue cells overexpressing human TLR8, SEAP reporter, R848 15.9 μM; read-out: TLR8 IC50. The procedure, abridged:
as §1

What is called IC50 is the concentration needed to halve the response being measured. For `Cc1cc2ncnn2cc1-c1[nH]c2sc(C3CCC(NC4COC4)CC3)nc2c1C(C)C` (single isomer, unassigned) [Example 153, N-(4-(6-isopropyl-5-(7-methyl-[1,2,4]triazolo[1,5-a]pyridin-6-yl)-4H-pyrrolo[3,2-d]thiazol-2-yl)cyclohexyl)oxetan-3-amine], the IC50 was found to be 27.8 nM on human TLR7, 22300 nM on human TLR9 and 6.62 nM at human TLR8.
The corresponding values for `CCc1c(-c2cc(OC)c3ncnn3c2)[nH]c2sc(C3CCC(NC4COC4)CC3)nc12` (single isomer, unassigned) [Example 271, N-(4-(6-ethyl-5-(8-methoxy-[1,2,4]triazolo[1,5-a]pyridin-6-yl)-4H-pyrrolo[3,2-d]thiazol-2-yl)cyclohexyl) oxetan-3-amine] are 0.96 nM, 4560 nM and 1.94 nM.
Regarding `COC(C)(C)CNC1CCC(c2nc3c(C(C)C)c(-c4cn5ncnc5c(C)c4C)[nH]c3s2)CC1` (single isomer, unassigned) [Example 186, 4-(5-(7,8-dimethyl-[1,2,4]triazolo[1,5-a]pyridin-6-yl)-6-isopropyl-4H-pyrrolo[3,2-d]thiazol-2-yl)-N-(2-methoxy-2-methylpropyl)cyclohexan-1-amine], the IC50 turned out to be 1.59 nM at human TLR7, 5920 nM against human TLR9 and 0.21 nM at human TLR8.
The corresponding values for `Cc1c(-c2[nH]c3sc(C4CCC(NCC(N)=O)CC4)nc3c2C(C)C)cn2ncnc2c1C` (stereo not drawn) [Example 211, 2-((4-(5-(7,8-dimethyl-[1,2,4]triazolo[1,5-a]pyridin-6-yl)-6-isopropyl-4H-pyrrolo[3,2-d]thiazol-2-yl)cyclohexyl)amino)acetamide] are 0.79 nM, 14300 nM and 0.58 nM.
The corresponding values for `COc1cc(-c2[nH]c3sc(C4CCC(NC(=O)CNCC(C)C)CC4)nc3c2C(C)C)cn2ncnc12` (stereo not drawn) [Example 129, 2-(isobutylamino)-N-(4-(6-isopropyl-5-(8-methoxy-[1,2,4]triazolo[1,5-a]pyridin-6-yl)-4H-pyrrolo[3,2-d]thiazol-2-yl)cyclohexyl)acetamide] are 1.34 nM, 14400 nM and 7.36 nM.
Taken in the same sequence, the figures for `COc1cc(-c2[nH]c3sc(C4CCC(NCC(C)(C)OC)CC4)nc3c2C(C)C)cn2ncnc12` (single isomer, unassigned) [Example 87, 4-(6-isopropyl-5-(8-methoxy-[1,2,4]triazolo[1,5-a]pyridin-6-yl)-4H-pyrrolo[3,2-d]thiazol-2-yl)-N-(2-methoxy-2-methylpropyl)cyclohexan-1-amine] were 1.73 nM, 7790 nM and 11.8 nM.
As to `COc1cc(-c2[nH]c3nc(C4CCNCC4)sc3c2C(C)C)cn2ncnc12` [Example 410, 6-isopropyl-5-(8-methoxy-[1,2, 4]triazolo[1,5-a]pyridin-6-yl)-2-(piperidin-4-yl)-4H-pyrrolo[2,3-d]thiazole], the values for the IC50 at human TLR7, at human TLR9 and on human TLR8 were 130 nM, 6800 nM and 560 nM, respectively.
`Cc1c(-c2[nH]c3sc(C4CCC(NC5CCOCC5)CC4)nc3c2C(C)C)cn2ncnc2c1C` (single isomer, unassigned) [Example 200, N-(4-(5-(7,8-dimethyl-[1,2,4]triazolo[1,5-a]pyridin-6-yl)-6-isopropyl-4H-pyrrolo[3,2-d]thiazol-2-yl)cyclohexyl)tetrahydro-2H-pyran-4-amine]: the IC50 on human TLR7 worked out at 0.92 nM; on human TLR9, 10100 nM; at human TLR8 it was 0.39 nM.
The corresponding values for `Cc1c(-c2[nH]c3sc(CN4CC5(CNC5)C4)nc3c2C(C)C)cn2ncnc2c1C` [Example 409, 2-((2,6-diazaspiro[3.3]heptan-2-yl)methyl)-5-(7,8-dimethyl-[1,2,4]triazolo[1,5-a]pyridin-6-yl)-6-isopropyl-4H-pyrrolo[3,2-d]thiazole] are 48.2 nM, 9800 nM and 345 nM.
The corresponding values for `Cc1c(-c2[nH]c3sc(N4CCN(CC5CC5)C[C@@H]4C)nc3c2C(C)C)cn2ncnc2c1C` [Example 352, (S)-2-(4-(cyclopropylmethyl)-2-methylpiperazin-1-yl)-5-(7,8-dimethyl-[1,2,4]triazolo[1,5-a]pyridin-6-yl)-6-isopropyl-4H-pyrrolo[3,2-d]thiazole] are 14.4 nM, 24500 nM and 1.09 nM.
The corresponding values for `CCN(C)C1CCC(c2nc3c(C(C)C)c(-c4cn5ncnc5c(C)c4C)[nH]c3s2)CC1` (single isomer, unassigned) [Example 191, 4-(5-(7,8-dimethyl-[1,2,4]triazolo[1,5-a]pyridin-6-yl)-6-isopropyl-4H-pyrrolo[3,2-d]thiazol-2-yl)-N-ethyl-N-methylcyclohexan-1-amine] are 1.5 nM, 9370 nM and 1.79 nM.
